Results published in ChEMBL document CHEMBL1144089, “New geodiamolides from the sponge Cymbastela sp. collected in Papua New Guinea” (J Nat Prod, 1999).
≈ marks a conversion by molar mass, not a printed value.

Legend:
[1] = Cytotoxicity against human U373 cells; type: functional, cell-based, U-373MG ATCC; conditions: U373 MG
[2] = system: HEY; assay: Cytotoxicity against human HEY cells; type: functional, cell-based

## C/C1=C\[C@H](C)C[C@H](C)OC(=O)[C@H](C)NC(=O)[C@@H](Cc2ccc(O)c(I)c2)N(C)C(=O)[C@H](C)NC(=O)[C@@H](C)C1 [GEODIAMOLIDE A]
[1]; read-out: IC50
  IC50: 16 µg/mL (≈ 24.9 µM)
[2]; read-out: IC50
  IC50: 43 µg/mL (≈ 67 µM)

## C=C1C[C@H](C)C(=O)N[C@@H](C)C(=O)N(C)[C@H](Cc2ccc(O)c(I)c2)C(=O)N[C@@H](C)C(=O)O[C@@H](C)C[C@@H](C)C1=O [GEODIAMOLIDE G]
[1]
  IC50: 7.7 µg/mL (≈ 11.7 µM)
[2]
  IC50: 8.6 µg/mL (≈ 13.1 µM)
